Experimental data taken from patent publication EP4335840A1, “NEW CONTRAST AGENTS FOR USE IN DIAGNOSTIC IMAGING” (priority 2022, dated 2024).

Tests used:
OATP1B1 = target: T1, OATP1B1 (Homo sapiens, UniProt Q9Y6L6); assay: Uptake into stable transfected OATP1B1 HEK 293 cells; type: cell-based; settings: 100 µM, 40 min, relative to RC1 (Gd-EOB-DTPA)
T1 sequence (Q9Y6L6 1-691): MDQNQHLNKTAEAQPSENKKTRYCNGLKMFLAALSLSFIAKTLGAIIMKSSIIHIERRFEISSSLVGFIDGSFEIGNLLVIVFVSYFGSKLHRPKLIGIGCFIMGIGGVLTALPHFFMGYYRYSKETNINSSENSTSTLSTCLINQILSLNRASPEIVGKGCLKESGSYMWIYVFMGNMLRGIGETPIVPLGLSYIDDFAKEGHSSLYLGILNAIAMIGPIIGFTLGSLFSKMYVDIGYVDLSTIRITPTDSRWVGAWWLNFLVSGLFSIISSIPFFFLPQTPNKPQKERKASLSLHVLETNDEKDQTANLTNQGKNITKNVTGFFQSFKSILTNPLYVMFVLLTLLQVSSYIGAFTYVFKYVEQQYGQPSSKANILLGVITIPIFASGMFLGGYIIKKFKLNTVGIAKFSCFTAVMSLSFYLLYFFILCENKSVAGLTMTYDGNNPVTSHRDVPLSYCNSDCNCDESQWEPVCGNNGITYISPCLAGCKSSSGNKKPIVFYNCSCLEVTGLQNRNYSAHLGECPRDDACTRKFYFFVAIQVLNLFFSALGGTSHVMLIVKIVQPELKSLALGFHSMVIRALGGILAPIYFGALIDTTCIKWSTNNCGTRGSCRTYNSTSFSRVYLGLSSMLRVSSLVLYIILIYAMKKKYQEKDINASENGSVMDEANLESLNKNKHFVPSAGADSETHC
Experimental: Human stable transfected OATP1B1 human embryonic kidney 293 cells (OATP1B1 HEK 293, SLCO1B1, Entrez Gene ID: 10599) were used (Leonhardt M et al. Drug Metab Dispos. 2010 Jul;38(7):1024-8). The following culture medium was used: 500 mL DMEM (Dulbecco's Modified Eagle Medium - high Glucose, D6429), 50 mL FCS (fetal bovine serum, Fa. Sigma, F7524), 5.8 mL G418 (Geneticin, Fa. Gibco 10131-027) and 5 mL Pen-Strep. (Penicillin-Streptomycin, Fa. Gibco, Ref 15140-122). Cryopreserved cells were shortly thawed in water bath and diluted in 10 mL warm culture medium (37°C). After medium change the cells were grown for 3d in a 25 cm^2 cell culture flask. After 3 to 5d the cells were transferred into 75 cm^2 flasks. For the splitting the cells were incubated with 1.5 mL trypsin (Trypsin-EDTA (1x) 0,05%, Ref 25300-054 100ml, Fa. Gibco) for 3-5min in the incubator (37°C, 5% CO2 and […]). After centrifugation and washing with medium the cells were counted (50 µL cell suspension and 50 µL trypan blue (Trypan Blue Solution, 93595-50ml, Fa. Fluka). Cells were cultured (1×10^5 cells/well) in poly-D-lysine coated 24-well plates (Fa. Corning, Ref: 354414) in 1.5 mL medium per well. After 48h in the incubator the medium was changed and 1.5 mL/well sodium butyrate containing medium were added (40 mL culture medium plus 400 µL Na-Butyrate, Fa. Sigma Aldrich B5887-5G, 250 mg in 2.27 mL MilliQ water). After 24h in the incubator the medium was vacuumed off and 1.5 mL transport buffer was added and incubated for 10min. The transport buffer contains the following ingredients: 500 mL HBSS (Hank's balanced salt solution, Hyclone, SH30268.01), 5 mL HEPES buffer (4-(2-hydroxyethyl)-1-piperazineethanesulfonic acid, Gibco 15630-056) and 3.9 mL glucose (Sigma, G8270-100, 90 g/200mL MilliQ water). All test items were prepared in transport buffer at a final concentration of 100 µM from stock solutions (180 to 500 mM concentration). The OATP1B1 HEK 293 cells were incubated with test solutions (test item in transport buffer 500 µL) for 40min on a thermoshaker without shaking (PHMP, Fa. Grant Bio). Triplicates were performed for each test item. After incubation the cells were washed with 2 mL of cold PBS (+) buffer (Dulbeccos PBS +, Fa. Gibco). […] As a reference standard Gd-EOB-DTPA (gadoxetate) is used in the same well plate. The OATP1B1 HEK 293 uptake of the test compound is calculated relative to gadoxetate (resulting in the unit % of RC1).

[1] = Water solubility in aqueous buffer; type: physicochemical; settings: aqueous buffer 10 mM Tris-HCl, pH 7.4, 20°C; Gd by ICP-MS
Experimental: The exploratory water solubility of the compounds is determined at room temperature (20°C) in 0.5 mL buffer solution (10 mM Tris-HCI, pH 7.4) in the microcentrifuge tubes (Eppendorf, 2.0 mL safe-lock caps). The solid compounds were added stepwise to the buffer solution. More substance is added once all the suspended material is dissolved until an equilibrium between undissolved and dissolved substance is reached. The suspension was mixed using a shaker (Heidolph Reax 2000) and treated 5 min in an ultrasound bath (Bandelin, Sonorex Super RK255H). The Gadolinium concentration of the test substance in the clear solution is measured by ICP-MS. Table 1: Solubilities of compounds in aqueous buffer at 20°C (pH 7.4).

| Substance | Uptake into OATP1B1-HEK 293 cells (OATP1B1) | Solubility [1] [mM] |
| --- | --- | --- |
| Gadolinium-2,2',2"-[10-(carboxymethyl)-2-(4-ethoxybenzyl)-1,4,7,10-tetraazacyclododecane-1,4,7-triyl]triacetate [Example 8] | 208 % of RC1 | – |
| Gadolinium-2,2',2"-[10-(carboxymethyl)-2-(4-ethoxybenzyl)-1,4,7,10-tetraazacyclododecane-1,4,7-triyl]triacetate [Example 9] | 60 % of RC1 | > 145 |
| Gadolinium-2,2',2"-[(2S)-2-(4-butoxybenzyl)-10-(carboxymethyl)-1,4,7,10-tetraaza cyclododecane-1,4,7-triyl]triacetate [Example 12] | 119 % of RC1 | 211 |
| Gadolinium-2,2',2"-[(2S)-2-(4-butoxybenzyl)-10-(carboxymethyl)-1,4,7,10-tetraaza cyclododecane-1,4,7-triyl]triacetate [Example 13] | 847 % of RC1 | > 43 |
| Gadolinium-2,2',2"-[(2S)-10-(carboxymethyl)-2-(4-ethoxybenzyl)-1,4,7,10-tetraazacyclododecane-1,4,7-triyl]triacetate [Example 10] | 212 % of RC1 | > 23 |
| Gadolinium-2,2',2"-[(2S)-10-(carboxymethyl)-2-(4-ethoxybenzyl)-1,4,7,10-tetraazacyclododecane-1,4,7-triyl]triacetate [Example 11] | 96 % of RC1 | > 146 |
